Test results as given in paper PMC5513037, “Examining the influence of specificity ligands and ATP-competitive ligands on the overall effectiveness of bivalent kinase inhibitors” (Proteome Science, 2017).

How the values were obtained:
Experiment in all cases: KAM-matrix competition in K562 lysate;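 on 0.001 uM KAM: median log10 fold change of treatment over DMSO control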;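 on 0.01 uM KAM: median log10 fold change of treatment over DMSO control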;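 on 0.1 uM KAM: median log10 fold change of treatment over DMSO control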;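 on 1 uM KAM: median log10 fold change of treatment over DMSO control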;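 on 10 uM KAM: median log10 fold change of treatment over DMSO control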
Assay type in all cases: binding
[1] = biological target: T1, MINK1 (Homo sapiens, UniProt Q8N4C8)
T1 construct: endogenous in cells; host or cells: K562
T1 sequence (Q8N4C8 whole entry): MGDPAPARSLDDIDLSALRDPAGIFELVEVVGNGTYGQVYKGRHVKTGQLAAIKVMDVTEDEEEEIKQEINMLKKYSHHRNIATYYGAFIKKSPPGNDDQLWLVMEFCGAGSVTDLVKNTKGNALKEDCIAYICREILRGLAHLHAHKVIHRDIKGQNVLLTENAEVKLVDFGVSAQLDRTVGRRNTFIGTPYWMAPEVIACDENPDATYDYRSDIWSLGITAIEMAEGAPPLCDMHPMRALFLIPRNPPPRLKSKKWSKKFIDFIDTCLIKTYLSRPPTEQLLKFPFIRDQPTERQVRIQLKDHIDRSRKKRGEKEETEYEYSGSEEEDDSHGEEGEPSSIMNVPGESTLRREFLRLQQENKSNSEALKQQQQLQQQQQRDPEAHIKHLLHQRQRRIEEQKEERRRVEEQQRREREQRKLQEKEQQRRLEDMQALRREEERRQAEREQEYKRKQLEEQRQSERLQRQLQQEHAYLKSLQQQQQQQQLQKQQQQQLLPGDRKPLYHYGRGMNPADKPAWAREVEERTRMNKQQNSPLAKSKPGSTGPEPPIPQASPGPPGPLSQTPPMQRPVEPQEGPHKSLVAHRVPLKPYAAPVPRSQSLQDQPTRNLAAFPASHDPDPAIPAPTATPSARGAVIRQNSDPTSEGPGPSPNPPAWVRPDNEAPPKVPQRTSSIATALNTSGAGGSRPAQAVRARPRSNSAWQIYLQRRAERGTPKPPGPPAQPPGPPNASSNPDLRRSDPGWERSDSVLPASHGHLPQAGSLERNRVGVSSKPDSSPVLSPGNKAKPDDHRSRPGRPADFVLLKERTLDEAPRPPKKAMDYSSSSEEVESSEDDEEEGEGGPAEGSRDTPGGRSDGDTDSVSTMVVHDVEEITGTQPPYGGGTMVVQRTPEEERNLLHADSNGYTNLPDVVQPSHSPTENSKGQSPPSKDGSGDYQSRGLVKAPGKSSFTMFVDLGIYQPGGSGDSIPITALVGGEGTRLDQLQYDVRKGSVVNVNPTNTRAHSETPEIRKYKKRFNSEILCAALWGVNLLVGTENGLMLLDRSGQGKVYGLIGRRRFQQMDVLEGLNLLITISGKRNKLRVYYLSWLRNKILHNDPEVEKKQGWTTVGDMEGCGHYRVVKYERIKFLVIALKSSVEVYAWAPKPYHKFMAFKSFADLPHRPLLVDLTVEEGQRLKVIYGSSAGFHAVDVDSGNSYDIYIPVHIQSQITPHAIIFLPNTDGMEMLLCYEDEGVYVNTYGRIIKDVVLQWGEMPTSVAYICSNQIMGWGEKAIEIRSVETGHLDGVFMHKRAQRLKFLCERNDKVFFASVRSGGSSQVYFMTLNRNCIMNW
Description: (§1) Supplement 12953_2017_125_MOESM1_ESM.zip/MS_Supp Info.xlsx, sheet "KAM" | column: 10 uM KAM; 1 uM KAM; 0.1 uM KAM; 0.01 uM KAM; 0.001 uM KAM; RB50

[2] = biological target: T2, WNK1 (Homo sapiens, UniProt Q9H4A3);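 on 0.001 uM KAM: median log10 fold change of treatment over DMSO control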;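 on 0.01 uM KAM: median log10 fold change of treatment over DMSO control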;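 on 0.1 uM KAM: median log10 fold change of treatment over DMSO control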;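 on 1 uM KAM: median log10 fold change of treatment over DMSO control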;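 on 10 uM KAM: median log10 fold change of treatment over DMSO control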
T2 construct: endogenous in cells; host or cells: K562
T2 sequence (Q9H4A3 whole entry): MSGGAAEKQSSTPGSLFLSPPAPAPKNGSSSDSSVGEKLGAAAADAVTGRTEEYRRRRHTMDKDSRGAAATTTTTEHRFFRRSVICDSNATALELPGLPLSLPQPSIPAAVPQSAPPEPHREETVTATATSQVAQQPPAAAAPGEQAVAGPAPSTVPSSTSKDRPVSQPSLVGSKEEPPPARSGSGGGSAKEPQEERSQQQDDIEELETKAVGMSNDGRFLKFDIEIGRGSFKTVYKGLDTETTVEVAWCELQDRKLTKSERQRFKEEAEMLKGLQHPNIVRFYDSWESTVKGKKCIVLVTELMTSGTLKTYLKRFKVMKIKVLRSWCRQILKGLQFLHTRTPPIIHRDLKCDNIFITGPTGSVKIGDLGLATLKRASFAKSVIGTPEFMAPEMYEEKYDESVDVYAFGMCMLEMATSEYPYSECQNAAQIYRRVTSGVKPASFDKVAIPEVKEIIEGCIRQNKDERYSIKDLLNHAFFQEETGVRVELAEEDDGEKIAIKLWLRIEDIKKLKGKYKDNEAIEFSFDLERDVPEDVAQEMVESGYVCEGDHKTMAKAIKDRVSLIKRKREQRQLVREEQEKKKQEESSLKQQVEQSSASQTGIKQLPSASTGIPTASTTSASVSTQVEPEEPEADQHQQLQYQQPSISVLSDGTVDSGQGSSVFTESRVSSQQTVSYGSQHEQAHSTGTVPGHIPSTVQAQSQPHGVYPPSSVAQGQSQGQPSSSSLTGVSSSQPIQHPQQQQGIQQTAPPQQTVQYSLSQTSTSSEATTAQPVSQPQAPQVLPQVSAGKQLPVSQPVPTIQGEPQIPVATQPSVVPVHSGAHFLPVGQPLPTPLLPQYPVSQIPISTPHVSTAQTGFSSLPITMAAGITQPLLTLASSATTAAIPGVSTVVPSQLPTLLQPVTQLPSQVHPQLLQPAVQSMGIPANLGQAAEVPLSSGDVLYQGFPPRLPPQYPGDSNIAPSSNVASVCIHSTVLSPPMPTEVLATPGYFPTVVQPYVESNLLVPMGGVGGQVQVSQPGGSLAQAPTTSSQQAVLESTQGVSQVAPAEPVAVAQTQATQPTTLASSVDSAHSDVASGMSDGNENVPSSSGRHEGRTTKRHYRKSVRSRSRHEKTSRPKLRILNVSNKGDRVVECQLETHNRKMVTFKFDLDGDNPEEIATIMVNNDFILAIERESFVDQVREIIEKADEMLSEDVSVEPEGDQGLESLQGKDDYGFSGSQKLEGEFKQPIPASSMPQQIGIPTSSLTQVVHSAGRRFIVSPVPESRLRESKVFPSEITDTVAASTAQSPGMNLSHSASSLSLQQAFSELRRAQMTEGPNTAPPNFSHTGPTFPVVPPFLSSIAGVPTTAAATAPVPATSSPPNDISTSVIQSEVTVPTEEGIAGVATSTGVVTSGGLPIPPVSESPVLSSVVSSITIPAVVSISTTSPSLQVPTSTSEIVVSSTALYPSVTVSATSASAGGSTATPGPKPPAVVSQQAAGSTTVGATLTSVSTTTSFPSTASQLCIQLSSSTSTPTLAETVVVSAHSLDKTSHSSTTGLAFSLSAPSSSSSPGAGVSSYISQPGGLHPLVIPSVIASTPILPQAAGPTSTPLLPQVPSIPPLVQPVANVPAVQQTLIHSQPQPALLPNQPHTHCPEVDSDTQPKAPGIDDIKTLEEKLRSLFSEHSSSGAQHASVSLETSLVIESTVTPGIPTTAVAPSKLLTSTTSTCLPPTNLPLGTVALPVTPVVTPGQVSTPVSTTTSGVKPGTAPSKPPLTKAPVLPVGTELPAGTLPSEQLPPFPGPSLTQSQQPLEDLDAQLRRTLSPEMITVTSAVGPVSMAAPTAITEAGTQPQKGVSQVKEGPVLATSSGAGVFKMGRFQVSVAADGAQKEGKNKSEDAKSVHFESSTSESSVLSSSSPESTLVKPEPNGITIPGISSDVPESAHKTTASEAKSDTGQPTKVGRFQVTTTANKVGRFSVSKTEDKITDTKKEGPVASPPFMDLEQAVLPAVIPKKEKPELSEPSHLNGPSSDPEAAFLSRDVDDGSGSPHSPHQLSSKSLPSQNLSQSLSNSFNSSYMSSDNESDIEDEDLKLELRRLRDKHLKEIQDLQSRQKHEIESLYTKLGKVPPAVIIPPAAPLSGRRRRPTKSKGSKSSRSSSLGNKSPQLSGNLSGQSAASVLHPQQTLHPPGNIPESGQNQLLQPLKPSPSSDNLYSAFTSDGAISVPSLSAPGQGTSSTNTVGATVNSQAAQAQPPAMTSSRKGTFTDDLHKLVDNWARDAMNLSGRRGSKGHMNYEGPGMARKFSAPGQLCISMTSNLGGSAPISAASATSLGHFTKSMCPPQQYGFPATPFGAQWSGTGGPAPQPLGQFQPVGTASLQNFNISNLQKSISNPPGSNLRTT
Description: as §1

[3] = biological target: T3, NME7 (Homo sapiens, UniProt Q9Y5B8);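 on 0.001 uM KAM: median log10 fold change of treatment over DMSO control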;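 on 0.01 uM KAM: median log10 fold change of treatment over DMSO control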;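 on 0.1 uM KAM: median log10 fold change of treatment over DMSO control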;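 on 1 uM KAM: median log10 fold change of treatment over DMSO control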;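 on 10 uM KAM: median log10 fold change of treatment over DMSO control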
T3 construct: endogenous in cells; host or cells: K562
T3 sequence (Q9Y5B8 1-376): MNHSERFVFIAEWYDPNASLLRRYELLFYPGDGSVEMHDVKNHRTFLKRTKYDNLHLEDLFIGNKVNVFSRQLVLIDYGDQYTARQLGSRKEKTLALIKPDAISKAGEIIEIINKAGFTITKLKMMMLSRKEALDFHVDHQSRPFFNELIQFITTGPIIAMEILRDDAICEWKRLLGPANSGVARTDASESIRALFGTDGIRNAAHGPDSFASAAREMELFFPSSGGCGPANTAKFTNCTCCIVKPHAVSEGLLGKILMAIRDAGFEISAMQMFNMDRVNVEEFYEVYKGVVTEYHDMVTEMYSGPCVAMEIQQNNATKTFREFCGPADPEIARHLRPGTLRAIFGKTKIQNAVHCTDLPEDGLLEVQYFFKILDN
Description: as §1

[4] = biological target: T4, EPHB4 (Homo sapiens, UniProt P54760)
T4 construct: endogenous in cells; host or cells: K562
T4 sequence (P54760 16-987): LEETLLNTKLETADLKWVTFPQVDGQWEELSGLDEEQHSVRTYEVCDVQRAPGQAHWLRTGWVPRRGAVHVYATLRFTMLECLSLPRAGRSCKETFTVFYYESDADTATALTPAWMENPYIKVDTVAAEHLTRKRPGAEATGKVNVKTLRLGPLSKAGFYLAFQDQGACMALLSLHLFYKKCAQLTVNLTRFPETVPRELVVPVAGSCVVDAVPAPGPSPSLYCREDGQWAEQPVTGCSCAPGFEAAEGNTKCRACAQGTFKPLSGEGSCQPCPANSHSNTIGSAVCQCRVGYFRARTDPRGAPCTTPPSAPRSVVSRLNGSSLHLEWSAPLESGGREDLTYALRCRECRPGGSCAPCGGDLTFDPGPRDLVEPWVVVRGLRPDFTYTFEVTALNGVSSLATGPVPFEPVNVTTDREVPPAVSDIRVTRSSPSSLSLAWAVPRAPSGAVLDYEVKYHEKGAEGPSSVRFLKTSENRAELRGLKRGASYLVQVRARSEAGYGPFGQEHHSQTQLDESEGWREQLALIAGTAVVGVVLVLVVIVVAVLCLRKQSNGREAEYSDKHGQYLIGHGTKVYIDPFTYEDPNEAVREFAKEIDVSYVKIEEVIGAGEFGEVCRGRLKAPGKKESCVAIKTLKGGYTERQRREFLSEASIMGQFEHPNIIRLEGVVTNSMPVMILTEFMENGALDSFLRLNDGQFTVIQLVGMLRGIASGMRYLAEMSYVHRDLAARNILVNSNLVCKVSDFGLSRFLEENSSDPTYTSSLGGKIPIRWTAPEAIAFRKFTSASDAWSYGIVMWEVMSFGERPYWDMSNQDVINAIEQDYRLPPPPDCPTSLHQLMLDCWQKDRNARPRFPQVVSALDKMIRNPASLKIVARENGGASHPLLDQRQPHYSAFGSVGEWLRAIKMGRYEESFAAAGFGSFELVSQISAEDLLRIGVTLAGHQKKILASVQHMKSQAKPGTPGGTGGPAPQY
Description: as §1

[5] = read-out: RB50 (the source's name)
[6] = KAM 0.001-10 uM, read-out: RB50 (the source's name)

`N#CCc1ccc(Nc2nc(NCCCN)cc(Nc3cc(C4CC4)[nH]n3)n2)cc1` [KAM] was tested, and the “median Log10 fold change” value ([1]; 0.001 uM KAM) was -0.05922, the “median Log10 fold change” value ([1]; 0.01 uM KAM) was -0.00678 and the “median Log10 fold change” value ([1]; 0.1 uM KAM) was -0.2189. The “median Log10 fold change” value ([1]; 1 uM KAM) was -0.4489, the “median Log10 fold change” value ([1]; 10 uM KAM) was -0.4879 and the IC50 [1, 5] was 329 nM. The IC50 [2, 6] was > 10000 nM, the “0.001 uM KAM” value ([2]; relative to 0 uM KAM = 0) was -0.03013 and the “0.01 uM KAM” value ([2]; relative to 0 uM KAM = 0) was -0.03259. The “0.1 uM KAM” value ([2]; relative to 0 uM KAM = 0) was -0.03066, the “1 uM KAM” value ([2]; relative to 0 uM KAM = 0) was 0.00603 and the “10 uM KAM” value ([2]; relative to 0 uM KAM = 0) was -0.05865. For the same compound, the IC50 [3, 6] was > 10000 nM, the “0.001 uM KAM” value ([3]; relative to 0 uM KAM = 0) was -0.02057 and the “0.01 uM KAM” value ([3]; relative to 0 uM KAM = 0) was -0.007814. For the same compound, the “0.1 uM KAM” value ([3]; relative to 0 uM KAM = 0) was 0.03797, the “1 uM KAM” value ([3]; relative to 0 uM KAM = 0) was 0.05362 and the “10 uM KAM” value ([3]; relative to 0 uM KAM = 0) was 0.03977. The “median Log10 fold change” value ([4]; 0.001 uM KAM) was -0.01696, the “median Log10 fold change” value ([4]; 0.01 uM KAM) was -0.007903 and the “median Log10 fold change” value ([4]; 0.1 uM KAM) was -0.1428. The “median Log10 fold change” value ([4]; 1 uM KAM) was -0.3696, the “median Log10 fold change” value ([4]; 10 uM KAM) was -0.517 and the IC50 [4, 5] was 717 nM.
